The source of these data is publication PMC9321722, “Tailored Pyridoxal Probes Unravel Novel Cofactor‐Dependent Targets and Antibiotic Hits in Critical Bacterial Pathogens” (Angewandte Chemie (International Ed. in English), 2022).

Test [1] deals with T1, PA2683 (Pseudomonas aeruginosa, UniProt Q9I0F5).
T1 sequence (Q9I0F5 1-320): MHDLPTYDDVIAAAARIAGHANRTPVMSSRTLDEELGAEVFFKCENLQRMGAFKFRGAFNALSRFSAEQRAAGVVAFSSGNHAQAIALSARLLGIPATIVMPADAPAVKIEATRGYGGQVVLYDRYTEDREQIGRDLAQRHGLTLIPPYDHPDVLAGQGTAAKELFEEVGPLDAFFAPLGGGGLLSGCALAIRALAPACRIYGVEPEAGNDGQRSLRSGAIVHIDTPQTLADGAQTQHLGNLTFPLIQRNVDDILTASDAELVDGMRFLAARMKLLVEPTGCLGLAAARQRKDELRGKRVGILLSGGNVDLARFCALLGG
As to the kind of experiment: coupled NADH assay and LC-MS/MS of products. It counts as biochemical.

In another test the target is T2, pdxK (Escherichia coli, UniProt P40191).
T2 construct: pyridoxal kinase used in UV/Vis phosphorylation assay
T2 sequence (P40191 whole entry): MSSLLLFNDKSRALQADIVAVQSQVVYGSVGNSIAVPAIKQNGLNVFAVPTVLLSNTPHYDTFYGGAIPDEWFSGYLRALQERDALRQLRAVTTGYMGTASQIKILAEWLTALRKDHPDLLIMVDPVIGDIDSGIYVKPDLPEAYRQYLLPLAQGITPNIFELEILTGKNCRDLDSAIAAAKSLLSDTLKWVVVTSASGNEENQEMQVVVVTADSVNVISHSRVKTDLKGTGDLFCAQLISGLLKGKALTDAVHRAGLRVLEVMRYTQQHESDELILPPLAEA
As to the kind of experiment: UV/Vis phosphorylation assay. It counts as biochemical.

For the next test, the target named is T3, SaPLK (Staphylococcus aureus, UniProt Q5HI96).
T3 construct: gene pdxK; pyridoxal kinase used in UV/Vis phosphorylation assay
T3 sequence (Q5HI96 1-276): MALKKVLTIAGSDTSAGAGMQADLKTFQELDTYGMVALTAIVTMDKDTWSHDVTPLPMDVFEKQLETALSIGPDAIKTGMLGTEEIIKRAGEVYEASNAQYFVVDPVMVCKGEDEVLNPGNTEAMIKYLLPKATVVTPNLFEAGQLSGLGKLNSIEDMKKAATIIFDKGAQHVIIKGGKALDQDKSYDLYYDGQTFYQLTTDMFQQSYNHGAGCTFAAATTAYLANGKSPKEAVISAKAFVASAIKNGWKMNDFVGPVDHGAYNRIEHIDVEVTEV
Description: UV/Vis phosphorylation assay. It counts as biochemical.

Test [2] has as its target T1, PA2683. As to the kind of experiment: acceleration of serine/threonine dehydratase activity of overexpressed enzyme. It counts as biochemical.
Test [3] has as its target T4, Orn/Lys/Arg decarboxylase (A0A0H2XII6) (Staphylococcus aureus, UniProt A0A0H2XII6).
T4 construct: gene SAUSA300_0458
As to the kind of experiment: LC-MS/MS quantification of cadaverine formed by overexpressed enzyme; also competitive PL2 profiling in cells. The class given is biochemical.

The target of test [4] is T5, A0A0H2XHJ5 (cysteine desulfurase, sufS) (Staphylococcus aureus, UniProt A0A0H2XHJ5).
T5 construct: with sufU
T5 sequence (A0A0H2XHJ5 entry or part of it): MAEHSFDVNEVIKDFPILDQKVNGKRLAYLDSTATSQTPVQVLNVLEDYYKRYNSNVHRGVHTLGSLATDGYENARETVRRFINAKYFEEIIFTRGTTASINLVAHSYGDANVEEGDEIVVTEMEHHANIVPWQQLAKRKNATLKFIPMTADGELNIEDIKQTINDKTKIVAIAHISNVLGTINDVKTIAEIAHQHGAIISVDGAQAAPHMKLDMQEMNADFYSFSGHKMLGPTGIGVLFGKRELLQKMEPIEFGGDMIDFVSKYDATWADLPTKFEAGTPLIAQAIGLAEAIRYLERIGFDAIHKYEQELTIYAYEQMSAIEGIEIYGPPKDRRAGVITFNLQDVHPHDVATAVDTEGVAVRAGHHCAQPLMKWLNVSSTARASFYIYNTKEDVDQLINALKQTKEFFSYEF
T5 sequence (A0A0H2XJC0 entry or part of it, further chain): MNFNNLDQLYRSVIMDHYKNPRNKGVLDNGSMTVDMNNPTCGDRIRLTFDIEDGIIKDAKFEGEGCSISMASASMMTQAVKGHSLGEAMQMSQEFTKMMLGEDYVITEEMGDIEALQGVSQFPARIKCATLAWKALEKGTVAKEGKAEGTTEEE
As to the kind of experiment: LC-MS quantification of alanine formed from L-Cys by overexpressed enzyme. It counts as biochemical.

Test [5] concerns the target T6, PA3659 (aminotransferase) (Pseudomonas aeruginosa, UniProt Q9HXY0).
T6 sequence (Q9HXY0 1-402): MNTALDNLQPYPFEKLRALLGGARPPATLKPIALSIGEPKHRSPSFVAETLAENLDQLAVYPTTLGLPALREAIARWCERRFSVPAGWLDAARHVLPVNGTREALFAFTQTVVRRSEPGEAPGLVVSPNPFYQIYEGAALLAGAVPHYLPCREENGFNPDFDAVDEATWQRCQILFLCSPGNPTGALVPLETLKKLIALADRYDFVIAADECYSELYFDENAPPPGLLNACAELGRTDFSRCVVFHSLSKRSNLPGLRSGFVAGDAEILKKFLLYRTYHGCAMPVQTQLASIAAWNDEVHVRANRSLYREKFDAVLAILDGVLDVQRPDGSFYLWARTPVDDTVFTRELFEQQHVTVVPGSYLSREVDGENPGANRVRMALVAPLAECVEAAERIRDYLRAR
Description: intact protein MS; UV/Vis of holo-enzyme. The class given is binding.

The target in the next test is ydcR (Escherichia coli, UniProt P77730). Description: intact protein MS of overexpressed protein. It counts as binding.
ydcR, sequence (P77730 whole entry): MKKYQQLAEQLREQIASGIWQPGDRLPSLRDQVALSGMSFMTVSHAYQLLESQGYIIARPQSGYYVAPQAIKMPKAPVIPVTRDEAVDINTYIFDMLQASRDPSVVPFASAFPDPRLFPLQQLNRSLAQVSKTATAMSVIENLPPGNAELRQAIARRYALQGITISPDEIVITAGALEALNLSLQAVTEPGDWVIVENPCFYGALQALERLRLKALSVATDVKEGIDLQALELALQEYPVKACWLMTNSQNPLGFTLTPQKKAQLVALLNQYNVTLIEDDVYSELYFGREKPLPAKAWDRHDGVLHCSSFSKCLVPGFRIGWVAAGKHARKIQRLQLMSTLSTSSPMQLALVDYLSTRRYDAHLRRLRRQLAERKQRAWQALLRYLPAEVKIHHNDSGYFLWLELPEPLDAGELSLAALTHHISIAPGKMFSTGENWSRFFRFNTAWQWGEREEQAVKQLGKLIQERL
Test [6] deals with T7, PA3798 (aminotransferase) (Pseudomonas aeruginosa, UniProt Q9HXJ9).
T7 sequence (Q9HXJ9 1-382): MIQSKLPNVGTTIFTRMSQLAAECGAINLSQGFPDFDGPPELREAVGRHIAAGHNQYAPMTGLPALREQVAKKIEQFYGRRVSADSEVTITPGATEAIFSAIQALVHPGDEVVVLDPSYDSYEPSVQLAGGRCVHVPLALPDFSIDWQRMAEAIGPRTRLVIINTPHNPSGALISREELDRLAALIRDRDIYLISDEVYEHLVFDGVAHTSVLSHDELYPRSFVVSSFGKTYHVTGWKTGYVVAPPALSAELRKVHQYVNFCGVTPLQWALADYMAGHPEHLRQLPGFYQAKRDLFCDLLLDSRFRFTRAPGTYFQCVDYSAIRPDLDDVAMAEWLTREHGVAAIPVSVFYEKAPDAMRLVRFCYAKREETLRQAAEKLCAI
As to the kind of experiment: intact protein MS; UV/Vis of holo-enzyme. It counts as binding.

In test [7] the target is T1, PA2683. Description: intact protein MS of overexpressed protein. It counts as binding.

Usually IC50 stands for the concentration that inhibits the measured activity by half. The low end stands for greater potency in that assay, the high end for weaker potency in that assay.

T4 sequence (A0A0H2XII6 entry or part of it): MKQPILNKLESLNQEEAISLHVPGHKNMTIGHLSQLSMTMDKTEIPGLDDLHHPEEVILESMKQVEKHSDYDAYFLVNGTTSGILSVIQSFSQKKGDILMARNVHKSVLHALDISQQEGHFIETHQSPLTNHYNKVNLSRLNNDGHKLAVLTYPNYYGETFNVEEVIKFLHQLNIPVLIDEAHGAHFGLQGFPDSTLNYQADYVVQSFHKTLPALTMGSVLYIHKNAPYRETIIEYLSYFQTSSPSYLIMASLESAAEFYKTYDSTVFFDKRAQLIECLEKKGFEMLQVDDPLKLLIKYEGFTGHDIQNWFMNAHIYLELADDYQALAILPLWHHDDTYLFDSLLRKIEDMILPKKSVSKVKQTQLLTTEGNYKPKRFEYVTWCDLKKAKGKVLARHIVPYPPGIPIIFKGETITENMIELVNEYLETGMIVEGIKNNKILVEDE

For `N[C@@H](CO)C(=O)O` [L-serine], at PA2683 [1], the “coupled NADH assay and LC-MS/MS of products” value is “The enzyme was overexpressed and indeed turnover of L‐serine was observed together with NADH consumption within a coupled assay”. Consider `C#CCCc1ncc(CO)c(C=O)c1O` [PL2], for which the UV/Vis phosphorylation assay entry at pdxK was “we observed phosphorylation of all probes except for PL11 and PL12”. With `C#Cc1nc(C)c(O)c(C=O)c1CO` [PL10], the UV/Vis phosphorylation assay result on SaPLK was “we observed phosphorylation of all probes except for PL11 and PL12”; on pdxK, “we observed phosphorylation of all probes except for PL11 and PL12”.

Turning to `Nc1ncnc2c1ncn2[C@@H]1O[C@H](COP(=O)(O)O)[C@@H](O)[C@H]1O` [adenosine monophosphate], the “acceleration of serine/threonine dehydratase activity of overexpressed enzyme” value on PA2683 [2] was “the catalysis was accelerated by adding adenosine monophosphate (AMP) and magnesium”. With `NNCCc1ccccc1` [phenelzine], the 50% inhibitory concentration (IC50) in test [3] amounted to 53.1 ± 1.05 µM; in test [4], 14.7 ± 1.22 µM. Consider `Cc1ncc(COP(=O)(O)O)c(C=O)c1O` [pyridoxal phosphate], for which the “intact protein MS; UV/Vis of holo-enzyme” value is reported as “PLP binding of all overexpressed enzymes was confirmed via intact protein MS (IP‐MS, Figure 4A)” in [5] and “PLP binding of all overexpressed enzymes was confirmed via intact protein MS (IP‐MS, Figure 4A)” in test [6]. Moreover, the “intact protein MS of overexpressed protein” value at ydcR is listed as “PLP binding of all overexpressed enzymes was confirmed via intact protein MS (IP‐MS, Figure 4A)”; at PA2683 [7], “PLP binding of all overexpressed enzymes was confirmed via intact protein MS (IP‐MS, Figure 4A)”.
